# Test results as given in US20160378909A1, “PROCESS FOR IDENTIFYING CULTURE CONDITIONS FOR A CELL OR ORGANISM” (GLAXOSMITHKLINE BIOLOGICALS SA, priority 2013, published 2016).
# Where two headings read alike, the source gives them in different places.
# Test system: Bordetella pertussis
# Test: microbe, parasite or virus in culture
# Type: cell-based
# Settings: for activity at 0.2 µg/mL / activity at 2 µg/mL / activity at 2000 µM / activity at 20000 µM / activity at 1330 µM / activity at 13300 µM / activity at 0.6 µg/mL / activity at 6 µg/mL / activity at 0.3 µg/mL / activity at 3 µg/mL / activity at 0.1 µg/mL / activity at 1 µg/mL / activity at 22.1 µM / activity at 221 µM: Bordetella pertussis
# Procedure: Cells were harvested by centrifugation, washed twice with NaCl 0.9% (w/v), and resuspended in fresh medium (de novo minimal CDM; see composition in Table 1) at a theoretical OD650 nm of 0.5, as calculated from the OD650 nm of the culture before harvest. 20 μl of this cell suspension were used to inoculate each well of a 96-well microtiter plate filled with 180 μl of de novo minimal CDM. Only the inner wells of the plate were used for cultures, in order to minimize evaporation, and two controls were included, in which the supplement solution was replaced with water.
# The plate was then incubated for 7 days at 35° C. in a Biotek Synergy H1 reader with constant shaking, and growth was automatically monitored every 10 minutes as OD650 nm.
# The relative growth yield and growth rate for each supplement was then averaged over the three independent repeats, and the standard deviation was calculated.
# [1] = 168 h, read-out: Relative yield Average, 2 mM in medium, max OD650 nm relative to water controls
# [2] = 168 h, read-out: Relative yield Average, 20 mM in medium, max OD650 nm relative to water controls
# [3] = read-out: Relative growth rate Average, 2 mM in medium, first generation, relative to water controls
# [4] = read-out: Relative growth rate Average, 20 mM in medium, first generation, relative to water controls
# [5] = 2 mM in medium, first generation, relative to water controls
# [6] = 2 mM in medium, max OD650 nm relative to water controls
# [7] = 20 mM in medium, first generation, relative to water controls
# [8] = 20 mM in medium, max OD650 nm relative to water controls
# [9] = 168 h, read-out: Relative yield Average, 1.33 mM in medium, max OD650 nm relative to water controls
# [10] = read-out: Relative growth rate Average, 1.33 mM in medium, first generation, relative to water controls
# [11] = 1 mM in medium, first generation, relative to water controls
# [12] = 10 mg/L in medium, first generation, relative to water controls
smiles,measurement,setting,value
Nc1ccc(C(=O)O)cc1 [para-aminobenzoic acid],activity at 0.2 µg/mL,"168 h, read-out: Relative yield Average, 0.2 mg/L in medium, max OD650 nm relative to water controls",95 to 105%
same,activity at 2 µg/mL,"168 h, read-out: Relative yield Average, 2 mg/L in medium, max OD650 nm relative to water controls",95 to 105%
same,activity at 0.2 µg/mL,"read-out: Relative growth rate Average, 0.2 mg/L in medium, first generation, relative to water controls",> 105%
same,activity at 2 µg/mL,"read-out: Relative growth rate Average, 2 mg/L in medium, first generation, relative to water controls",95 to 105%
OCC(O)CO [Glycerol],activity at 2000 µM,[1],95 to 105%
same,activity at 20000 µM,[2],> 105%
same,activity at 2000 µM,[3],95 to 105%
same,activity at 20000 µM,[4],< 95%
O=C[O-].[Na+] [Sodium formate],Relative growth rate Average,[5],97.36%
same,Relative yield Average,[6],143.35%
same,Relative growth rate Average,[7],89.12%
same,Relative yield Average,[8],168.28%
NC(=O)C[C@H](N)C(=O)O [L-Asparagine],activity at 1330 µM,[9],95 to 105%
same,activity at 13300 µM,"168 h, read-out: Relative yield Average, 13.3 mM in medium, max OD650 nm relative to water controls",< 95%
same,activity at 1330 µM,[10],95 to 105%
same,activity at 13300 µM,"read-out: Relative growth rate Average, 13.3 mM in medium, first generation, relative to water controls",95 to 105%
CC(=O)[O-].[Na+] [Sodium acetate],Relative growth rate Average,"5 mM in medium, first generation, relative to water controls",101.45%
same,Relative yield Average,"5 mM in medium, max OD650 nm relative to water controls",99.15%
same,Relative growth rate Average,"50 mM in medium, first generation, relative to water controls",71.40%
same,Relative yield Average,"50 mM in medium, max OD650 nm relative to water controls",152.20%
NC(=O)CC[C@H](N)C(=O)O [L-Glutamine],activity at 2000 µM,[1],95 to 105%
same,activity at 20000 µM,[2],> 105%
same,activity at 2000 µM,[3],95 to 105%
same,activity at 20000 µM,[4],< 95%
O=P([O-])([O-])O.[Na+].[Na+] [Na2HPO4],Relative growth rate Average,[11],99.98%
same,Relative growth rate Average,"10 mM in medium, first generation, relative to water controls",101.26%
O.O.O.O.O.O.[Cl-].[Cl-].[Co+2] [CoCl2•6H2O],Relative growth rate Average,"0.42 mg/L in medium, first generation, relative to water controls",93.44%
same,Relative yield Average,"0.42 mg/L in medium, max OD650 nm relative to water controls",103.04%
same,Relative growth rate Average,"4.2 mg/L in medium, first generation, relative to water controls",46.12%
same,Relative yield Average,"4.2 mg/L in medium, max OD650 nm relative to water controls",149.59%
N[C@@H](CC(=O)O)C(=O)O [L-Aspartate],Relative growth rate Average,"0.225 mM in medium, first generation, relative to water controls",96.87%
same,Relative yield Average,"0.225 mM in medium, max OD650 nm relative to water controls",106.30%
same,Relative growth rate Average,"2.25 mM in medium, first generation, relative to water controls",72.32%
same,Relative yield Average,"2.25 mM in medium, max OD650 nm relative to water controls",99.74%
O=C([O-])O.[Na+] [NaHCO3],Relative yield Average,[6],102.33%
CSCC[C@H](N)C(=O)O [L-Methionine],activity at 20000 µM,[2],> 105%
same,activity at 2000 µM,[3],> 105%
same,activity at 20000 µM,[4],> 105%
C[N+](C)(C)CCO.[Cl-] [Choline chloride],activity at 0.6 µg/mL,"168 h, read-out: Relative yield Average, 0.6 mg/L in medium, max OD650 nm relative to water controls",95 to 105%
same,activity at 6 µg/mL,"168 h, read-out: Relative yield Average, 6 mg/L in medium, max OD650 nm relative to water controls",95 to 105%
same,activity at 0.6 µg/mL,"read-out: Relative growth rate Average, 0.6 mg/L in medium, first generation, relative to water controls",95 to 105%
same,activity at 6 µg/mL,"read-out: Relative growth rate Average, 6 mg/L in medium, first generation, relative to water controls",95 to 105%
CC(C)[C@H](N)C(=O)O [L-Valine],activity at 2000 µM,[1],95 to 105%
same,activity at 2000 µM,[3],< 95%
Cc1cc2nc3c(=O)[nH]c(=O)nc-3n(C[C@H](O)[C@H](O)[C@H](O)CO)c2cc1C [Riboflavin],activity at 0.3 µg/mL,"168 h, read-out: Relative yield Average, 0.3 mg/L in medium, max OD650 nm relative to water controls",95 to 105%
same,activity at 3 µg/mL,"168 h, read-out: Relative yield Average, 3 mg/L in medium, max OD650 nm relative to water controls",95 to 105%
same,activity at 0.3 µg/mL,"read-out: Relative growth rate Average, 0.3 mg/L in medium, first generation, relative to water controls",> 105%
same,activity at 3 µg/mL,"read-out: Relative growth rate Average, 3 mg/L in medium, first generation, relative to water controls",95 to 105%
N[C@@H](Cc1ccccc1)C(=O)O [L-Phenylalanine],activity at 1330 µM,[9],< 95%
same,activity at 1330 µM,[10],< 95%
NC(=O)c1ccc[n+]([C@@H]2O[C@H](COP(=O)([O-])OP(=O)(O)OC[C@H]3O[C@@H](n4cnc5c(N)ncnc54)[C@H](O)[C@@H]3O)[C@@H](O)[C@H]2O)c1 [NAD],Relative growth rate Average,[12],100.14%
same,Relative yield Average,"10 mg/L in medium, max OD650 nm relative to water controls",100.15%
same,Relative growth rate Average,"100 mg/L in medium, first generation, relative to water controls",97.38%
same,Relative yield Average,"100 mg/L in medium, max OD650 nm relative to water controls",104.61%
Cl.N [NH4Cl],Relative growth rate Average,[11],98.56%
same,Relative yield Average,"1 mM in medium, max OD650 nm relative to water controls",104.80%
Nc1nc2nc[nH]c2c(=O)[nH]1 [Guanine],activity at 0.1 µg/mL,"168 h, read-out: Relative yield Average, 0.1 mg/L in medium, max OD650 nm relative to water controls",95 to 105%
same,activity at 1 µg/mL,"168 h, read-out: Relative yield Average, 1 mg/L in medium, max OD650 nm relative to water controls",95 to 105%
same,activity at 0.1 µg/mL,"read-out: Relative growth rate Average, 0.1 mg/L in medium, first generation, relative to water controls",95 to 105%
same,activity at 1 µg/mL,"read-out: Relative growth rate Average, 1 mg/L in medium, first generation, relative to water controls",95 to 105%
O=C([O-])/C=C/C(=O)[O-].[Na+].[Na+] [Disodium Fumarate],Relative growth rate Average,[5],97.72%
same,Relative yield Average,[6],107.14%
same,Relative growth rate Average,[7],86.72%
same,Relative yield Average,[8],171.26%
C[C@H](N)C(=O)O [L-Alanine],activity at 2000 µM,[1],95 to 105%
same,activity at 2000 µM,[3],> 105%
N[C@@H](Cc1ccc(O)cc1)C(=O)O [L-Tyrosine],activity at 22.1 µM,"168 h, read-out: Relative yield Average, 0.0221 mM in medium, max OD650 nm relative to water controls",95 to 105%
same,activity at 221 µM,"168 h, read-out: Relative yield Average, 0.221 mM in medium, max OD650 nm relative to water controls",95 to 105%
same,activity at 22.1 µM,"read-out: Relative growth rate Average, 0.0221 mM in medium, first generation, relative to water controls",95 to 105%
same,activity at 221 µM,"read-out: Relative growth rate Average, 0.221 mM in medium, first generation, relative to water controls",< 95%
CC(C)C[C@H](N)C(=O)O [L-Leucine],activity at 1330 µM,[9],95 to 105%
same,activity at 1330 µM,[10],95 to 105%
CC(=O)C(=O)O [Sodium pyruvate],activity at 2000 µM,[1],< 95%
same,activity at 2000 µM,[3],< 95%
[Cl-].[Cl-].[Zn+2] [ZnCl2],Relative growth rate Average,[12],103.27%
